Results taken from patent EP0929545B1, “TRICYCLIC INHIBITORS OF FARNESYL PROTEIN TRANSFERASE” (SCHERING CORPORATION, priority 1996, dated 1998).
Read-outs that look alike come from different tables or passages of the source.

How the values were obtained:
[1] = target: farnesyl protein transferase (Homo sapiens, UniProt P49354+P49356); assay: FPT IC50, inhibition of farnesyl protein transferase, in vitro enzyme assay; type: biochemical; conditions: range stated jointly for the listed compounds
Method: (§1) FPT IC50 (inhibition of farnesyl protein transferase, in vitro enzyme assay) and COS Cell IC50 (Cell-Based Assay) were determined following the assay procedures described in WO 95/10516, published April 20, 1995. GGPT IC50 (inhibition of geranylgeranyl protein transferase, in vitro enzyme assay), Cell Mat Assay, and anti-tumor activity (in vivo anti-tumor studies) could be determined by the assay procedures described in WO 95/ 10516. The disclosure of WO 95/ 10516 is incorporated herein by reference thereto.

COS Cell = COS Cell IC50 (Cell-Based Assay); conditions: range stated jointly for the listed compounds
Method: as §1

Human tumor cells = assay: Soft Agar Assay (anchorage-independent growth); type: cell-based; conditions: range stated jointly for the listed compounds, upper end printed as >500
Method: Anchorage-independent growth is a characteristic of tumorigenic cell lines. Human tumor cells are suspended in growth medium containing 0.3% agarose and an indicated concentration of a farnesyl transferase inhibitor. The solution is overlayed onto growth medium solidified with 0.6% agarose containing the same concentration of farnesyl transferase inhibitor as the top layer. After the top layer is solidified, plates are incubated for 10-16 days at 37°C under 5% CO2 to allow colony outgrowth. After incubation, the colonies are stained by overlaying the agar with a solution of MTT (3-[4,5-dimethylthiazol-2-yl]-2,5-diphenyltetrazolium bromide, Thiazolyl blue) (1 mg/mL in PBS). Colonies can be counted and the IC50's can be determined.

[2] = H-ras, read-out: FPT IC50 (H-ras)
[3] = K-ras, read-out: FPT IC50 (K-ras)

Structure (SMILES) | IC50 [1, 2] | IC50 [1, 3] | IC50 (COS Cell) | IC50 (Human tumor cells)
O=C(CC1CCN(c2nnnn2-c2ccccc2)CC1)N1CCC([C@H]2c3ncc(Br)cc3CCc3cc(Cl)cc(Br)c32)CC1 [Compound 2.0] | 4.6 to 140 nM |  |  | 
O=C(CC1CCN(c2nccs2)CC1)N1CCC([C@H]2c3ncc(Br)cc3CCc3cc(Cl)cc(Br)c32)CC1 [Compound 3.0] | 4.6 to 140 nM |  |  | 
O=C(CC1CCN(c2nc3ccccc3o2)CC1)N1CCC([C@H]2c3ncc(Br)cc3CCc3cc(Cl)cc(Br)c32)CC1 [Compound 4.0] | 4.6 to 140 nM | 29 to 91 nM | 35 to 120 nM | 
O=C(CC1CCN(c2ccccn2)CC1)N1CCC([C@H]2c3ncc(Br)cc3CCc3cc(Cl)cc(Br)c32)CC1 [Compound 5.0] | 4.6 to 140 nM | 29 to 91 nM | 35 to 120 nM | ≥ 80 nM
O=C(CC1CCN(c2ncccn2)CC1)N1CCC([C@H]2c3ncc(Br)cc3CCc3cc(Cl)cc(Br)c32)CC1 [Compound 6.0] | 4.6 to 140 nM |  | 35 to 120 nM | 
CC(=O)OC[C@H]1O[C@@H](N2CCC(CC(=O)N3CCC([C@H]4c5ncc(Br)cc5CCc5cc(Cl)cc(Br)c54)CC3)CC2)[C@H](OC(C)=O)[C@@H](OC(C)=O)[C@@H]1OC(C)=O [Compound 9.3, (+) -4-(3,10-dibromo-8-chloro-6,11-dihydro-5H-benzo[5,6]cyclohepta[1,2-b]pyridin-11-yl)-1-[[1-[2,3,4,6-tetra-O-acetyl-1-beta-D-glucopyranosyl]-4-piperidinyl]acetyl]piperidine] | 4.6 to 140 nM | 29 to 91 nM | 35 to 120 nM | ≥ 80 nM
